Laboratory results: patent US6395255B1, “Radiolabeled vasoactive intestinal peptide analogs for imaging and therapy” (Thomas Jefferson University, priority 1998, dated 2002)
Entries after “also recorded” stand apart in the source; their conditions may differ. Values belong to the compound of their own block, whether it stands above or below them. Square brackets hold non-standard residues; d marks the D form. Ends that are not written are not given here. Peptide text beside a SMILES is read from it. GABA = NCCCC(=O)O

How the values were obtained:
[1] = Tissue distribution and gamma camera imaging in nude mice bearing LS174T tumors; conditions: athymic NCr nude, mouse, iv, total radioactivity, 24 h postinjection, mean ± SD, n = 5; for tissue uptake at 24 h: Biodistribution
Experimental: Tissue Distribution Studies
(§1) The ability of ^99MTc-TP3654 to detect human colorectal carcinoma was examined in nude mice.
(§2) Human colorectal cancer cells LS 174T (ATCC) were grown in culture and 5×10^6 viable cells were implanted intramuscularly in the right thighs of athymic NCr nude mice that weighed 20-25 g. Tumors were grown to no more than 1 cm in diameter. Each animal received approximately 700 Ci of ^99mTc-TP3654 (1450 Ci/mrnol) in 200 1, of saline through a lateral tail vein. Exact activity injected was determined by measuring the syringe, before and after injection, in a calibrated ionization chamber (Capintech, Ramsey, N.J.). A suitable standard of ^99mTc was prepared at the time of injection.
(§3) At 4 or 24 h later, animals were killed and imaged using a GE STARCAM gamma camera (Milwaukee, Wis.) equipped with a low-energy parallel-hole collimator and a dedicated computer. Tissues were dissected and weighed, and associated radioactivity was counted (Packard 5000 series gamma counter), along with a standard, in duplicate. Results were calculated as percentage injected dose per gram of tissue (% ID/g) and were analyzed by using Student t test.
(§4) A tissue distribution study was performed in a manner similar to that for ^99mTc-TP3654.
(§5) For animal tissue distribution studies, a protocol similar to that for ^99mTc-TP3654 was followed.

[2] = tested on: LS174T human colorectal tumor; test: as above; conditions: for delineation of tumor in gamma camera image: nude mice bearing LS174T tumor in right thigh, 24 h after injection
Experimental: Tissue Distribution Studies
as §1, §2, §3, §4, §5

[3] = set-up: species or system Sprague-Dawley rats; conditions: Sprague-Dawley, rat, in vivo, iv
Experimental: Blood Clearance in Rats Three Sprague-Dawley rats, each weighing approximately 250 g, were injected through a lateral tail vein with 1 mCi ^99mTcTP3654 and serial blood samples were drawn, in triplicate, through the other lateral tail vein at 1, 5, 10, 15 and 30 min and then at 1, 2, 4, 6, 18 and 24 h. Blood samples were weighed, radioactivity was counted with a standard ^99mTc solution prepared at the time of injection and the percentage injected dose per gram of blood was plotted as a function of time.

[4] = tested on: LS174T human colorectal tumor; conditions: athymic NCr nude, mouse, in vivo, iv, 24 h
Experimental: Tissue Distribution Studies
as §1, §2, §3, §4, §5

[5] = format: physicochemical
Experimental: Stability of ^99mTc-TP3654 To measure the in vitro stability of ^99mTc-TP3654, a known quantity of the preparation was incubated at 37° C. for 24 h, with 100 molar excess of DTPA, HSA or cysteine. At 0, 5 and 24 h, samples were withdrawn for HPLC analysis and the radioactivity that was associated with the challenging agent and that remained as ^99mTc-TP3654 (Rt=11.8 min) was measured.

VIP receptor = test: Receptor blocking with unlabeled VIP-28 or TP3654 in LS174T tumor-bearing nude mice; format: in vivo; conditions: 50 μg unlabeled peptide intravenously 30 min before tracer, 24 h, vs not pretreated mice
Experimental: Receptor Blocking […] Mice were killed 24 h later, and percentage injected dose per gram of tissues was determined. Data were compared to 24 h distribution in mice (n=5) given 700 μCi ^99mTc-TP3654 but not pretreated with unlabeled VIP or TP3654.

in vivo [6] = conditions: athymic NCr nude, mouse, iv, total radioactivity; for tissue uptake at 4 h / tissue uptake at 24 h: Biodistribution
Experimental: Tissue Distribution Studies
as §1, §2, §3, §4, §5

in vivo [7] = conditions: rat, total radioactivity
[8] = tested on: internal anal sphincter (IAS) smooth muscle; test: Functional assay using opossum internal anal sphincter smooth muscle strips (fall in resting tension); format: tissue-based, opossums (Didelphis virginiana); conditions: at 10^−6 mol/L; 100% = maximal relaxation with 5 mmol/L EDTA
colonic adenocarcinoma = conditions: cited from earlier work

tissue uptake at 24 h ([1]; blood, nude mice bearing LS174T tumors): 0.03 %ID/g | tissue uptake at 24 h ([1]; heart, nude mice bearing LS174T tumors): 0.01 %ID/g | tissue uptake at 24 h ([1]; kidney, nude mice bearing LS174T tumors): 0.2 ± 0.02 %ID/g | tissue uptake at 24 h ([1]; liver, nude mice bearing LS174T tumors): 0.16 ± 0.02 %ID/g | tissue uptake at 24 h ([1]; lung, nude mice bearing LS174T tumors): 0.03 %ID/g | tissue uptake at 24 h ([1]; muscle, nude mice bearing LS174T tumors): 0.01 %ID/g | tissue uptake at 24 h ([1]; small intestine, nude mice bearing LS174T tumors): 0.03 ± 0.01 %ID/g | tissue uptake at 24 h ([1]; spleen, nude mice bearing LS174T tumors): 0.06 ± 0.03 %ID/g | tissue uptake at 24 h ([1]; tumor, LS174T tumor, nude mice): 0.03 %ID/g | tissue to tissue ratio at 24 h ([1]; tumor/blood, T/B ratio (tumor-to-blood), nude mice bearing LS174T tumors): 0.77 ± 0.03 | tissue to tissue ratio at 24 h ([1]; tumor/muscle, T/M ratio (tumor-to-muscle), nude mice bearing LS174T tumors): 1.88 ± 0.36 | Biodistribution, Kidney ([2]; kidney, 24 h postinjection, nude mice bearing LS174T tumors, mean ± SD, n = 5): 0.2±0.02 % ID/g
Compound: C[C@@H](NC(=O)CN)C(=O)NCC(=O)NCC(=O)NCCCC(=O)O [^99mTc-G(D)AGG-Aba, metal not drawn] (H-G[dA]GG[GABA]-OH; N-terminus and C-terminus assumed)
delineation of tumor in gamma camera image [2]: not delineated | delineation of tumor in gamma camera image ([2]; listed as 99mTc-G(D)AGG): not

blood clearance α-t 1/2 [3]: approximately 5 min | blood clearance β-t½ [3]: approximately 120 min | Biodistribution, Tumor [4]: 0.23 ± 0.13 % ID/g | stability on storage (HPLC) [5]: stable for up to 24 h | radioactivity displaced by challenge with 100 molar excess of DTPA, HSA or cysteine ([5]; 24 h of incubation at 37° C.): approximately 11% | tissue uptake at 4 h (in vivo [6]; Blood): 0.21 ± 0.02 %ID/g | tissue uptake at 24 h (in vivo [6]; Blood): 0.12 ± 0.02 %ID/g | tissue uptake at 4 h (in vivo [6]; Heart): 0.1 %ID/g | tissue uptake at 24 h (in vivo [6]; Heart): 0.06 ± 0.01 %ID/g | tissue uptake at 4 h (in vivo [6]; Kidney): 19 ± 3.75 %ID/g | tissue uptake at 24 h (in vivo [6]; Kidney): 3.52 ± 0.4 %ID/g | tissue uptake at 4 h (in vivo [6]; Liver): 1.12 ± 0.08 %ID/g | tissue uptake at 24 h (in vivo [6]; Liver): 0.33 ± 0.04 %ID/g | tissue uptake at 4 h (in vivo [6]; Lung): 0.17 ± 0.01 %ID/g | tissue uptake at 24 h (in vivo [6]; Lung): 0.16 ± 0.09 %ID/g | tissue uptake at 4 h (in vivo [6]; Muscle): 0.09 ± 0.01 %ID/g | tissue uptake at 24 h (in vivo [6]; Muscle): 0.04 ± 0.01 %ID/g | tissue uptake at 4 h (in vivo [6]; Small intestine): 0.18 ± 0.05 %ID/g | tissue uptake at 24 h (in vivo [6]; Small intestine): 0.05 ± 0.01 %ID/g | tissue uptake at 4 h (in vivo [6]; Spleen): 0.19 ± 0.05 %ID/g | tissue uptake at 24 h (in vivo [6]; Spleen): 0.11 ± 0.02 %ID/g | tissue uptake at 4 h (in vivo [6]; Tumor): 0.24 ± 0.06 %ID/g | tissue uptake at 24 h (in vivo [6]; Tumor): 0.2 %ID/g | tissue to tissue ratio at 4 h (in vivo [6]; T/B ratio (tumor-to-blood)): 1.16 ± 0.29 | tissue to tissue ratio at 24 h (in vivo [6]; T/B ratio (tumor-to-blood)): 1.98 ± 1.44 | tissue to tissue ratio at 4 h (in vivo [6]; T/M ratio (tumor-to-muscle)): 2.73 ± 1.09 | tissue to tissue ratio at 24 h (in vivo [6]; T/M ratio (tumor-to-muscle)): 6.28 ± 3.09 | tissue uptake at 4 h (in vivo [7]): 0.73 ± 0.12 %ID/g
Compound: CC[C@H](C)[C@H](NC(=O)[C@H](CO)NC(=O)[C@H](CC(N)=O)NC(=O)[C@H](CC(C)C)NC(=O)[C@H](Cc1ccc(O)cc1)NC(=O)[C@H](CCCCN)NC(=O)[C@H](CCCCN)NC(=O)[C@@H](NC(=O)[C@H](C)NC(=O)[C@H](CCSC)NC(=O)[C@H](CCC(N)=O)NC(=O)[C@H](CCCCN)NC(=O)[C@H](CCCNC(=N)N)NC(=O)[C@H](CC(C)C)NC(=O)[C@H](CCCNC(=N)N)NC(=O)[C@@H](NC(=O)[C@H](Cc1ccc(O)cc1)NC(=O)[C@H](CC(N)=O)NC(=O)[C@H](CC(=O)O)NC(=O)[C@@H](NC(=O)[C@H](Cc1ccccc1)NC(=O)[C@@H](NC(=O)[C@H](C)NC(=O)[C@H](CC(=O)O)NC(=O)[C@H](CO)NC(=O)[C@@H](N)Cc1c[nH]cn1)C(C)C)[C@@H](C)O)[C@@H](C)O)C(C)C)C(=O)N[C@@H](CC(C)C)C(=O)N[C@@H](CC(N)=O)C(=O)NCCCC(=O)NCC(=O)NCC(=O)N[C@H](C)C(=O)NCC(=O)O [^99mTc-TP3654, metal not drawn]
delineation of tumor in gamma camera image [2]: delineates the tumor and both kidneys; also recorded: clearly delineated | uptake of ^99mTc-TP3654 after pretreatment with unlabeled TP3654 or VIP (VIP receptor): decreased in all VIP receptor-rich tissues except the kidneys

Compound: CPTA-VIP: VIP conjugated with the chelating agent CPTA, [4-(1,4,8,11-tetraazacyclotetradec-1-yl)methyl] benzoic acid (HSDAVFTDNYTRLRKQMAVKKYLNSILN; ends and bridges not checked; also: conjugated with chelator CPTA, position not given here; UniProt P01282 125-152, looked up)
muscle relaxivity (fall in resting IAS tension) [8]: 35%

Compound: I-123 labeled VIP: I-123 labeled vasoactive intestinal peptide (VIP)
positive scans in patients with colonic adenocarcinoma (colonic adenocarcinoma; 17 patients): 17 out of 17 | lung uptake (colonic adenocarcinoma; human, in vivo): approximately 25% | effectiveness in imaging colorectal adenocarcinoma (colonic adenocarcinoma; patients): 100% | effectiveness in imaging in patients with liver metastases (colonic adenocarcinoma; patients): 83% | imaging of lung metastases (colonic adenocarcinoma; patients): 66%
